Patent US9962369B2, “Methods and compositions for transdermal delivery” (SPRAYABLE HOLDINGS, INC., priority 2014, dated 2018)

Assay: Transdermal delivery of melatonin: plasma level of melatonin after applying composition to skin of a subject
Details: human, plasma, topical, Plasma level of melatonin; for concentration at 1 h: 1 hr after transdermal administration; for concentration at 2 h: 2 hr after transdermal administration; for concentration at 4 h: 4 hr after transdermal administration; for concentration at 8 h: 8 hr after transdermal administration; for concentration at 0 h: 0 hr after transdermal administration
[1] = 3 mg, salt of tryptophan isopropyl ester, A− = Cl^−, 247.52 mM, 0.30 mL applied
[2] = 3 mg, salt of tryptophan isopropyl ester, A− = F^−, 262.85 mM, 0.30 mL applied
[3] = 3 mg, salt of tryptophan isopropyl ester, A− = I^−, 187.04 mM, 0.30 mL applied
[4] = 3 mg, salt of tryptophan isopropyl ester, A− = Lactate ion, 208.11 mM, 0.30 mL applied
[5] = 0.3 mL of 1% melatonin in water, Tryptophan isopropyl ester hydrochloride 247.52 mM, 0.3 mL applied to skin
[6] = 0.3 mL of 1% melatonin in water, salt of tyrosine isopropyl ester, A− = Benzoate ion, 202.65 mM, 0.30 mL applied
[7] = 0.3 mL of 1% melatonin in water, salt of tyrosine isopropyl ester, A− = Lactate ion, 221.97 mM, 0.30 mL applied
[8] = 2 mL of […] melatonin suspension in water, Table 21 control, A− N/A, helper esters 0 mM, 2.0 mL applied
[9] = 2 mL of […] melatonin suspension, Helper esters: None (0 mM), 2.0 mL applied to skin
[10] = 2-(Dibutylamino)ethyl 2-acetoxybenzoate hydrochloride 188.23 mM, 0.375 mL applied to skin
[11] = 2-(Diethylamino)ethyl 2-acetoxybenzoate hydrochloride 221.69 mM, 0.375 mL applied to skin
[12] = 3-(Diethylamino)propyl 2-acetoxybenzoate hydrochloride 212.24 mM, 0.375 mL applied to skin
[13] = 6-(Dimethylamino)hexyl 2-acetoxybenzoate hydrochloride 203.56 mM, 0.375 mL applied to skin
[14] = Proline hexyl ester hydrochloride 296.94 mM, 0.60 mL applied to skin
[15] = Proline isopropyl ester hydrochloride 361.41 mM, 0.60 mL applied to skin
[16] = Proline methyl ester hydrochloride 422.66 mM, 0.60 mL applied to skin
[17] = salt of tryptophan isopropyl ester, A− = Lactate ion, 208.11 mM, 0.30 mL applied
[18] = salt of tyrosine isopropyl ester, A− = AcO^−, 245.0 mM, 0.30 mL applied
[19] = salt of tyrosine isopropyl ester, A− = Benzoate ion, 202.65 mM, 0.30 mL applied
[20] = salt of tyrosine isopropyl ester, A− = Br^−, 230.16 mM, 0.30 mL applied
[21] = salt of tyrosine isopropyl ester, A− = Citrate ion, 168.49 mM, 0.30 mL applied
[22] = salt of tyrosine isopropyl ester, A− = Cl^−, 269.51 mM, 0.30 mL applied
[23] = salt of tyrosine isopropyl ester, A− = F^−, 287.91 mM, 0.30 mL applied
[24] = salt of tyrosine isopropyl ester, A− = I^−, 199.43 mM, 0.30 mL applied

concentration at 1 h [1]: 2.5 ng/mL
concentration at 2 h [1]: 2.8 ng/mL
concentration at 4 h [1]: 2.7 ng/mL
concentration at 8 h [1]: 2.5 ng/mL
concentration at 0 h [2]: 0 ng/mL
concentration at 1 h [2]: 2.6 ng/mL
concentration at 2 h [2]: 2.8 ng/mL
concentration at 4 h [2]: 2.9 ng/mL
concentration at 8 h [2]: 2.6 ng/mL
concentration at 0 h [3]: 0 ng/mL
concentration at 1 h [3]: 2.3 ng/mL
concentration at 2 h [3]: 2.3 ng/mL
concentration at 4 h [3]: 2.2 ng/mL
concentration at 8 h [3]: 2.1 ng/mL
concentration at 0 h [4]: 0 ng/mL
concentration at 1 h [4]: 1.9 ng/mL
concentration at 0 h [5]: 0 ng/mL
concentration at 1 h [5]: 2.5 ng/mL
concentration at 2 h [6]: 2 ng/mL
concentration at 4 h [6]: 1.8 ng/mL
concentration at 8 h [6]: 1.7 ng/mL
concentration at 0 h [7]: 0 ng/mL
concentration at 1 h [7]: 1.7 ng/mL
concentration at 2 h [7]: 1.8 ng/mL
concentration at 4 h [7]: 2 ng/mL
concentration at 8 h [7]: 1.6 ng/mL
concentration at 0 h [8]: 0 ng/mL
concentration at 1 h [8]: 0.1 ng/mL
concentration at 2 h [8]: 0.1 ng/mL
concentration at 4 h [8]: 0.1 ng/mL
concentration at 8 h [8]: 0.1 ng/mL
concentration at 4 h [9]: 0.1 ng/mL
concentration at 8 h [9]: 0.1 ng/mL
concentration at 0 h [14]: 0 ng/mL
concentration at 1 h [14]: 1.1 ng/mL
concentration at 2 h [14]: 1.2 ng/mL
concentration at 4 h [14]: 1.3 ng/mL
concentration at 8 h [14]: 1.2 ng/mL
concentration at 0 h [15]: 0 ng/mL
concentration at 1 h [15]: 1.4 ng/mL
concentration at 2 h [15]: 1.4 ng/mL
concentration at 4 h [15]: 1.5 ng/mL
concentration at 8 h [15]: 1.4 ng/mL
concentration at 0 h [16]: 0 ng/mL
concentration at 1 h [16]: 1.2 ng/mL
concentration at 2 h [16]: 1.4 ng/mL
concentration at 4 h [16]: 1.3 ng/mL
concentration at 8 h [16]: 1.3 ng/mL
concentration at 2 h [17]: 2 ng/mL
concentration at 4 h [17]: 1.9 ng/mL
concentration at 8 h [17]: 1.8 ng/mL
concentration at 0 h [18]: 0 ng/mL
concentration at 1 h [18]: 1.8 ng/mL
concentration at 2 h [18]: 2 ng/mL
concentration at 4 h [18]: 1.9 ng/mL
concentration at 8 h [18]: 21.8 ng/mL
concentration at 0 h [19]: 0 ng/mL
concentration at 1 h [19]: 1.6 ng/mL
concentration at 0 h [20]: 0 ng/mL
concentration at 1 h [20]: 2.3 ng/mL
concentration at 2 h [20]: 2.7 ng/mL
concentration at 4 h [20]: 2.7 ng/mL
concentration at 8 h [20]: 2.6 ng/mL
concentration at 0 h [21]: 0 ng/mL
concentration at 1 h [21]: 2 ng/mL
concentration at 2 h [21]: 2.3 ng/mL
concentration at 4 h [21]: 2.2 ng/mL
concentration at 8 h [21]: 2 ng/mL
concentration at 0 h [22]: 0 ng/mL
concentration at 1 h [22]: 2.1 ng/mL
concentration at 2 h [22]: 2.9 ng/mL
concentration at 4 h [22]: 2.7 ng/mL
concentration at 8 h [22]: 2.8 ng/mL
concentration at 0 h [23]: 0 ng/mL
concentration at 1 h [23]: 2.2 ng/mL
concentration at 2 h [23]: 2.8 ng/mL
concentration at 4 h [23]: 2.8 ng/mL
concentration at 8 h [23]: 2.5 ng/mL
concentration at 0 h [24]: 0 ng/mL
concentration at 1 h [24]: 2.1 ng/mL
concentration at 2 h [24]: 2.3 ng/mL
concentration at 4 h [24]: 2.3 ng/mL
concentration at 8 h [24]: 2.1 ng/mL
Structure (SMILES): COc1ccc2[nH]cc(CCNC(C)=O)c2c1 [Melatonin]
concentration at 0 h [10]: 0 ng/mL
concentration at 1 h [10]: 1.6 ng/mL
concentration at 2 h [10]: 1.9 ng/mL
concentration at 4 h [10]: 1.8 ng/mL
concentration at 8 h [10]: 1.6 ng/mL
concentration at 0 h [11]: 0 ng/mL
concentration at 1 h [11]: 2.3 ng/mL
concentration at 2 h [11]: 2.6 ng/mL
concentration at 4 h [11]: 2.7 ng/mL
concentration at 8 h [11]: 2.4 ng/mL
concentration at 0 h [12]: 0 ng/mL
concentration at 1 h [12]: 2.1 ng/mL
concentration at 2 h [12]: 2.2 ng/mL
concentration at 4 h [12]: 2.3 ng/mL
concentration at 8 h [12]: 2.1 ng/mL
concentration at 0 h [13]: 0 ng/mL
concentration at 1 h [13]: 1.7 ng/mL
concentration at 2 h [13]: 2.1 ng/mL
concentration at 4 h [13]: 2.1 ng/mL
concentration at 8 h [13]: 1.9 ng/mL
